In patent US7423032B2, “Method for treating severe heart failure and medicament therefor” (Otsuka Pharmaceutical Co., Ltd., priority 2003, dated 2008):

What was measured:
Type in all cases: in vivo, human patients
[1] = Serum sodium concentration in patients of hyponatremia at baseline treated with (A); conditions: for Serum sodium concentration: mean ± SD
Description: (§1) To patients of severe heart failure (i.e., patient in acute heart failure or chronic heart failure in acute exacerbation, New York Heart Association Class III and IV) was administered 5-hydroxy-7-chloro-1-[2-methyl-4-(2-methylbenzoylamino)benzoyl]-2,3,4,5-tetrahydro-1H-benzazepine at a dose of 30, 60 or 90 mg/day for a period of 60 days, which period began from the duration of hospitalization to after being discharged from hospital (details thereof are shown in Table 1).
As to the statistical analysis, the data in Table 2 was analyzed by ANOVA method, and the data in Tables 3 and 4 were analyzed by ANCOVA method, and the data in Table 5 was analyzed by Log-Rank test. […]

[2] = Mean change in body weight from baseline in patients treated with (A); parameters: Mean change in body weight from baseline: unit not given here
Description: as §1
(§2) As to the statistical analysis, the data in Table 2 was analyzed by ANOVA method, and the data in Tables 3 and 4 were analyzed by ANCOVA method, and the data in Table 5 was analyzed by Log-Rank test.
(§3) When the dosages in this experiment were converted to a daily dose per 1 kg of body weight, they were 0.371±0.096 mg/kg (n=77) in the 30 mg-treated group, 0.769±0.205 mg/kg (n=83) in the 60 mg-treated group, and 1.149±0.283 mg/kg (n=76) in the 90 mg-treated group (all in mean±SD).

[3] = Adverse events (urinary frequency) in patients treated with (A); conditions: for Urinary Frequency Event Rate (%): placebo 1.3%
Description: as §1
(§4) In addition, in the group treated with the lowest dose of 30 mg, the urinary frequency event rate as an adverse experience was lower (Table 6), and the discontinued rate due to adverse experiences was lower (Table 7), as compared with the data of the groups treated with higher doses.

[4] = Total urine output in patients treated with (A), placebo-controlled Phase IIB study; parameters: Total urine output: unit not given here
Description: as §1, §2, §3

[5] = Discontinued cases due to adverse experiences in patients treated with (A); conditions: for Discontinuation due to Adverse Experience Event Rate (%): placebo 15.0%
Description: as §1, §4

[6] = test system: patients of severe heart failure; assay: Mortality of the patients treated with (A); conditions: for Mortality Event Rate (%): placebo 8.7%; for Number off Death: on therapy up to 60 days
Description: as §1, §2

[7] = 30 mg group compared with groups treated with higher doses
[8] = 30 mg/day oral, 78 patients randomized
[9] = 60 mg/day oral, 84 patients randomized
[10] = 90 mg/day oral, 77 patients randomized

Cc1ccccc1C(=O)Nc1ccc(C(=O)N2CCCC(O)c3cc(Cl)ccc32)c(C)c1 (stereo not drawn) [(A), 5-hydroxy-7-chloro-1-[2-methyl-4-(2-methylbenzoylamino)benzoyl]-2,3,4,5-tetrahydro-1H-benzazepine]
Serum sodium concentration ([1]; 30 mg group, Baseline, patients of hyponatremia at baseline, n=15): 132.13 ± 3.44 mEq/L | Serum sodium concentration ([1]; 30 mg/day oral, Day 1, patients of hyponatremia at baseline, n=15): 136.00 ± 3.96 mEq/L | Serum sodium concentration ([1]; 30 mg/day oral, Day 2, patients of hyponatremia at baseline, n=11): 135.09 ± 5.07 mEq/L | Serum sodium concentration ([1]; 30 mg/day oral, Day 3, patients of hyponatremia at baseline, n=8): 135.13 ± 5.38 mEq/L | Serum sodium concentration ([1]; 30 mg/day oral, Discharge, patients of hyponatremia at baseline, n=15): 136.13 ± 4.61 mEq/L | Serum sodium concentration ([1]; 30 mg/day oral, Last Visit, patients of hyponatremia at baseline, n=15): 137.00 ± 5.04 mEq/L | Serum sodium concentration ([1]; 30 mg/day oral, outpatient Week 1, patients of hyponatremia at baseline, n=12): 138.25 ± 4.22 mEq/L | Serum sodium concentration ([1]; 30 mg/day oral, outpatient Week 7, patients of hyponatremia at baseline, n=10): 137.60 ± 4.65 mEq/L | Serum sodium concentration ([1]; 60 mg group, Baseline, patients of hyponatremia at baseline, n=22): 130.86 ± 4.00 mEq/L | Serum sodium concentration ([1]; 60 mg/day oral, Day 1, patients of hyponatremia at baseline, n=22): 135.77 ± 6.16 mEq/L | Serum sodium concentration ([1]; 60 mg/day oral, Day 2, patients of hyponatremia at baseline, n=17): 137.29 ± 3.02 mEq/L | Serum sodium concentration ([1]; 60 mg/day oral, Day 3, patients of hyponatremia at baseline, n=13): 138.62 ± 4.44 mEq/L | Serum sodium concentration ([1]; 60 mg/day oral, Discharge, patients of hyponatremia at baseline, n=22): 137.18 ± 4.56 mEq/L | Serum sodium concentration ([1]; 60 mg/day oral, Last Visit, patients of hyponatremia at baseline, n=22): 136.18 ± 5.94 mEq/L | Serum sodium concentration ([1]; 60 mg/day oral, outpatient Week 1, patients of hyponatremia at baseline, n=16): 136.88 ± 5.82 mEq/L | Serum sodium concentration ([1]; 60 mg/day oral, outpatient Week 7, patients of hyponatremia at baseline, n=11): 139.36 ± 4.76 mEq/L | Serum sodium concentration ([1]; 90 mg group, Baseline, patients of hyponatremia at baseline, n=15): 133.07 ± 2.52 mEq/L | Serum sodium concentration ([1]; 90 mg/day oral, Day 1, patients of hyponatremia at baseline, n=15): 137.13 ± 4.82 mEq/L | Serum sodium concentration ([1]; 90 mg/day oral, Day 2, patients of hyponatremia at baseline, n=15): 137.00 ± 4.60 mEq/L | Serum sodium concentration ([1]; 90 mg/day oral, Day 3, patients of hyponatremia at baseline, n=11): 136.45 ± 4.59 mEq/L | Serum sodium concentration ([1]; 90 mg/day oral, Discharge, patients of hyponatremia at baseline, n=15): 137.13 ± 3.02 mEq/L | Serum sodium concentration ([1]; 90 mg/day oral, Last Visit, patients of hyponatremia at baseline, n=15): 136.60 ± 5.17 mEq/L | Serum sodium concentration ([1]; 90 mg/day oral, outpatient Week 1, patients of hyponatremia at baseline, n=8): 136.13 ± 3.64 mEq/L | Serum sodium concentration ([1]; 90 mg/day oral, outpatient Week 7, patients of hyponatremia at baseline, n=6): 138.00 ± 5.73 mEq/L | serum sodium concentration (in words) ([1]; patients of hyponatremia at baseline (less than 136 mEq/L)): increase of serum sodium concentration | body weight (in words) ([2]; 30 mg-treated group): decreased | Mean change in body weight from baseline ([2]; 30 mg/day oral, Day 1, mean ± SD, n=76): −2.14 ± 2.63 | Mean change in body weight from baseline ([2]; 30 mg/day oral, Day 2, mean ± SD, n=63): −3.49 ± 3.80 | Mean change in body weight from baseline ([2]; 30 mg/day oral, Day 3, mean ± SD, n=49): −4.78 ± 4.14 | Mean change in body weight from baseline ([2]; 30 mg/day oral, Discharge, mean ± SD, n=76): −4.37 ± 4.69 | Mean change in body weight from baseline ([2]; 30 mg/day oral, Last Visit, mean ± SD, n=76): −2.42 ± 5.37 | Mean change in body weight from baseline ([2]; 30 mg/day oral, outpatient Week 1, mean ± SD, n=65): −2.71 ± 4.93 | Mean change in body weight from baseline ([2]; 30 mg/day oral, outpatient Week 7, mean ± SD, n=54): −2.12 ± 5.16 | Mean change in body weight from baseline ([2]; 60 mg/day oral, Day 1, mean ± SD, n=76): −2.10 ± 1.80 | Mean change in body weight from baseline ([2]; 60 mg/day oral, Day 2, mean ± SD, n=65): −3.03 ± 2.48 | Mean change in body weight from baseline ([2]; 60 mg/day oral, Day 3, mean ± SD, n=47): −3.93 ± 3.33 | Mean change in body weight from baseline ([2]; 60 mg/day oral, Discharge, mean ± SD, n=82): −4.60 ± 4.67 | Mean change in body weight from baseline ([2]; 60 mg/day oral, Last Visit, mean ± SD, n=82): −3.60 ± 6.38 | Mean change in body weight from baseline ([2]; 60 mg/day oral, outpatient Week 1, mean ± SD, n=59): −2.73 ± 5.45 | Mean change in body weight from baseline ([2]; 60 mg/day oral, outpatient Week 7, mean ± SD, n=54): −2.87 ± 6.67 | Mean change in body weight from baseline ([2]; 90 mg/day oral, Day 1, mean ± SD, n=74): −1.90 ± 2.87 | Mean change in body weight from baseline ([2]; 90 mg/day oral, Day 2, mean ± SD, n=61): −2.84 ± 3.16 | Mean change in body weight from baseline ([2]; 90 mg/day oral, Day 3, mean ± SD, n=45): −2.65 ± 4.22 | Mean change in body weight from baseline ([2]; 90 mg/day oral, Discharge, mean ± SD, n=76): −3.75 ± 4.18 | Mean change in body weight from baseline ([2]; 90 mg/day oral, Last Visit, mean ± SD, n=76): −2.39 ± 5.20 | Mean change in body weight from baseline ([2]; 90 mg/day oral, outpatient Week 1, mean ± SD, n=53): −3.23 ± 4.46 | Mean change in body weight from baseline ([2]; 90 mg/day oral, outpatient Week 7, mean ± SD, n=53): −2.23 ± 5.19 | urinary frequency event rate as an adverse experience (in words) [3, 7]: lower | Adverse Event Urinary Frequency (number of patients) ([3]; 30 mg/day oral, 78 patients): 1 | Urinary Frequency Event Rate (%) ([3]; 30 mg/day oral, 78 patients): 1.3% | Adverse Event Urinary Frequency (number of patients) ([3]; 60 mg/day oral, 84 patients): 3 | Urinary Frequency Event Rate (%) ([3]; 60 mg/day oral, 84 patients): 3.6% | Adverse Event Urinary Frequency (number of patients) ([3]; 90 mg/day oral, 76 patients): 4 | Urinary Frequency Event Rate (%) ([3]; 90 mg/day oral, 76 patients): 5.3% | total urine output (in words) ([4]; 30 mg-treated group): increased | Total urine output ([4]; 30 mg/day oral, Day 1, mean ± SD, n=73): 4056.16 ± 2310.23 | Total urine output ([4]; 30 mg/day oral, Day 2, mean ± SD, n=67): 3905.61 ± 1942.03 | Total urine output ([4]; 30 mg/day oral, Day 3, mean ± SD, n=52): 3579.04 ± 1867.86 | Total urine output ([4]; 30 mg/day oral, Day 6, mean ± SD, n=33): 3146.67 ± 1618.09 | Total urine output ([4]; 30 mg/day oral, Day 7, mean ± SD, n=16): 2662.81 ± 1507.51 | Total urine output ([4]; 30 mg/day oral, Day 9, mean ± SD, n=5): 2908.00 ± 475.59 | Total urine output ([4]; 60 mg/day oral, Day 1, mean ± SD, n=82): 4175.15 ± 2695.44 | Total urine output ([4]; 60 mg/day oral, Day 2, mean ± SD, n=74): 3699.26 ± 2094.02 | Total urine output ([4]; 60 mg/day oral, Day 3, mean ± SD, n=54): 3420.41 ± 1902.77 | Total urine output ([4]; 60 mg/day oral, Day 6, mean ± SD, n=32): 3684.56 ± 2472.45 | Total urine output ([4]; 60 mg/day oral, Day 7, mean ± SD, n=17): 4230.00 ± 1691.43 | Total urine output ([4]; 60 mg/day oral, Day 9, mean ± SD, n=11): 3753.18 ± 2415.48 | Total urine output ([4]; 90 mg/day oral, Day 1, mean ± SD, n=73): 4127.27 ± 2050.81 | Total urine output ([4]; 90 mg/day oral, Day 2, mean ± SD, n=64): 3961.73 ± 2129.11 | Total urine output ([4]; 90 mg/day oral, Day 3, mean ± SD, n=50): 4069.32 ± 2306.07 | Total urine output ([4]; 90 mg/day oral, Day 6, mean ± SD, n=30): 4188.23 ± 2275.15 | Total urine output ([4]; 90 mg/day oral, Day 7, mean ± SD, n=17): 3915.12 ± 2101.53 | Total urine output ([4]; 90 mg/day oral, Day 9, mean ± SD, n=7): 2421.43 ± 1391.12 | discontinued rate due to adverse experiences (in words) [5, 7]: lower | Discontinued cases due to Adverse Experience (number) [5, 8]: 14 | Discontinuation due to Adverse Experience Event Rate (%) [5, 8]: 17.9% | Discontinued cases due to Adverse Experience (number) [5, 9]: 25 | Discontinuation due to Adverse Experience Event Rate (%) [5, 9]: 29.8% | Discontinued cases due to Adverse Experience (number) [5, 10]: 17 | Discontinuation due to Adverse Experience Event Rate (%) [5, 10]: 22.1% | mortality rate vs control group (in words) ([6]; 30 mg-treated group, entire period, Log-Rank test): significantly lower | Mortality Event Rate (%) [6, 8]: 3.8% | Number off Death [6, 8]: 3 | Mortality Event Rate (%) [6, 9]: 9.5% | Number off Death [6, 9]: 8 | Mortality Event Rate (%) [6, 10]: 2.5% | Number off Death [6, 10]: 2
